Assay results published in ChEMBL document CHEMBL1201862, “PubChem BioAssay data set” (2004).
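Method: 48-hour compound exposure of cells in 96-well plates, five concentrations, linear interpolation of endpoints. The concentration for 50% growth inhibition is given as GI50.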 Activity calls are given as the source filed them. No stated cut-off is given here; in the data, active = GI50 up to about 1.1 µM and inactive = higher.

Assays:
Assay in all cases: NCI anticancer screen, dose series, 48 h
HOP-62 = tested on: HOP-62
SNB-75 = tested on: SNB-75
OVCAR-4 = tested on: OVCAR-4
SN12C = tested on: SN12C
SK-MEL-28 = tested on: SK-MEL-28
786-0 = tested on: 786-0
HCC 2998 = tested on: HCC 2998
TK-10 = tested on: TK-10
K562 = tested on: K562
OVCAR-8 = tested on: OVCAR-8
A549 = tested on: A549
RPMI-8226 = tested on: RPMI-8226
SNB-19 = tested on: SNB-19
U-251 = tested on: U-251
NCI-H522 = tested on: NCI-H522
SK-OV-3 = tested on: SK-OV-3

Measured: GI50

CC1(C(=O)O)CCOc2ccccc21 (stereo not drawn)
inactive: HOP-62 > 100 µM | SNB-75 > 100 µM | OVCAR-4 > 100 µM | SN12C > 100 µM | SK-MEL-28 > 100 µM | 786-0 > 100 µM | HCC 2998 > 100 µM | TK-10 > 100 µM | K562 > 100 µM | OVCAR-8 > 100 µM | A549 > 100 µM | RPMI-8226 > 100 µM | SNB-19 > 100 µM

COc1ccc(NC(=O)C2C(=O)N(c3ccc(OC)cc3)C(=O)/C2=N\N)cc1 (stereo not drawn)
inactive: HOP-62 > 100 µM | SN12C > 100 µM | SK-MEL-28 > 100 µM | 786-0 > 100 µM | HCC 2998 > 100 µM | U-251 > 100 µM | TK-10 > 100 µM | K562 65 µM | OVCAR-8 > 100 µM | NCI-H522 > 100 µM | A549 > 100 µM | SNB-19 94.8 µM

C[P+]1(c2ccccc2)CCCCC1
inactive: HOP-62 > 100 µM | SNB-75 > 100 µM | OVCAR-4 > 100 µM | SK-OV-3 > 100 µM | SN12C > 100 µM | SK-MEL-28 > 100 µM | 786-0 > 100 µM | HCC 2998 > 100 µM | U-251 > 100 µM | TK-10 > 100 µM | K562 > 100 µM | OVCAR-8 > 100 µM | A549 > 100 µM | RPMI-8226 > 100 µM | SNB-19 > 100 µM

CN(/N=C/c1cccc2cccnc12)c1ccc([N+](=O)[O-])cc1
inactive: HOP-62 > 100 µM | SNB-75 21.4 µM | SK-OV-3 43.1 µM | SN12C > 100 µM | SK-MEL-28 > 100 µM | 786-0 > 100 µM | HCC 2998 > 100 µM | TK-10 91.2 µM | K562 > 100 µM | OVCAR-8 > 100 µM | A549 48.1 µM | RPMI-8226 > 100 µM | SNB-19 > 100 µM

Cc1cccc2c1Oc1cc(Cl)ccc1C2NC(=O)CN(C)C (stereo not drawn)
inactive: HOP-62 57.7 µM | SNB-75 21.1 µM | OVCAR-4 53.5 µM | SK-OV-3 73.8 µM | SN12C 63.1 µM | SK-MEL-28 27.1 µM | 786-0 14.5 µM | HCC 2998 34.8 µM | TK-10 > 100 µM | K562 36 µM | OVCAR-8 > 100 µM | A549 > 100 µM | RPMI-8226 29.2 µM | SNB-19 54 µM

CC(C)CCC[C@@H](C)[C@H]1CC[C@H]2[C@@H]3CC=C4CC(OCCCCN(O)CCCSC5OC(CO)C(O)C(O)C5O)CC[C@]4(C)[C@H]3CC[C@]12C (stereo partly drawn)
inactive: HOP-62 94.2 µM | SNB-75 65.8 µM | OVCAR-4 > 100 µM | SK-OV-3 > 100 µM | SN12C > 100 µM | SK-MEL-28 > 100 µM | 786-0 18 µM | U-251 30.2 µM | TK-10 > 100 µM | K562 36.3 µM | OVCAR-8 74.1 µM | NCI-H522 23.1 µM | A549 42.2 µM | RPMI-8226 > 100 µM | SNB-19 > 100 µM

Cc1c(Cl)cccc1NC(=O)CC1C(=O)Nc2ccccc2S1(=O)=O (stereo not drawn)
inactive: SNB-75 17.2 µM | OVCAR-4 20.5 µM | SN12C 16.7 µM | SK-MEL-28 18.6 µM | 786-0 17.3 µM | HCC 2998 16.7 µM | U-251 13.1 µM | TK-10 25.8 µM | K562 5.5 µM | OVCAR-8 18.4 µM | A549 18.2 µM | RPMI-8226 11.6 µM | SNB-19 33 µM

O=C(CSc1nc(-c2ccccc2)c(-c2ccccc2)[nH]1)N/N=C/c1ccc([N+](=O)[O-])cc1
inactive: HOP-62 17.7 µM | SNB-75 21.8 µM | OVCAR-4 23 µM | SK-OV-3 14.5 µM | SN12C 16.2 µM | SK-MEL-28 15.6 µM | 786-0 16.8 µM | U-251 14.1 µM | TK-10 15.7 µM | OVCAR-8 10.3 µM | NCI-H522 14.5 µM | A549 29.6 µM | RPMI-8226 16.6 µM
